The values that follow come from publication PMC3735853 (Journal of biomolecular screening, 2013).

Read-outs that look alike come from different tables or passages of the source.

Assay [1] has as its target hV2R[L^83Q] (Homo sapiens, UniProt P30518, L83Q). The assay is described as follows: uHTS optimized primary V2R pharmacoperone assay. The class given is cell-based. Particulars: for LOPAC Screen Average %Response +/−Std Dev: single concentration of 6 μM (0.4% DMSO), normalized to 100 nM SR121463 (positive) and DMSO (negative), triplicate.
Assay [2] concerns the target V2R. The note with it: cited from earlier work.

Consider `C[C@H]1CCC/C=C/[C@@H]2C[C@H](O)C[C@H]2[C@H](O)/C=C/C(=O)O1` [Brefeldin A], for which, in assay [1], the EC50 stood at 270 nM and the “LOPAC Screen Average %Response +/−Std Dev” value is on record as 43+/−1%.

For the compound `C=C[C@@]1(C)CC(=O)[C@]2(O)[C@@]3(C)[C@@H](O)CCC(C)(C)[C@@H]3[C@H](O)[C@H](OC(C)=O)[C@@]2(C)O1` [Forskolin], in assay [1], the midpoint of the response, the EC50, lay at 430 nM and the “LOPAC Screen Average %Response +/−Std Dev” value is listed as 104+/−0%.

With `Cc1ccccc1N1CCN(S(=O)(=O)C[C@]23CC[C@H](C[C@@H]2NC(=O)[C@@H](N)CCS(C)(=O)=O)C3(C)C)CC1` [L-368,899], the “LOPAC Screen Average %Response +/−Std Dev” value in assay [1] is given as 74+/−2%.

As to `CCOc1ccc2c(c1)C1(CCC(OCCN3CCOCC3)CC1)C(=O)N2S(=O)(=O)c1ccc(C(=O)NC(C)(C)C)cc1OC` (stereo not drawn) [SR121463], in assay [1] (no-wash protocol), the “lowest level detectable in the assay system” value was found to be 1 nM. Also, the EC50 in assay [1] (read-out: EC50 (pharmacoperone rescue), presence of 1 μM vasopressin, no-wash protocol, absence of doxycycline (n=4)) turned out to be 1.97 ± 0.25 nM. Besides, the Ki in assay [2] (read-out: Ki (antagonist), no reference given) is ~1 nM; in assay [2] (read-out: Ki of SR121463 (literature value), used to perform the fit), 0.94 nM.

Broadly, the EC50 is the concentration needed to bring the measured effect to its halfway point. For orientation: Ki means the dissociation constant of the complex between target and ligand, obtained from inhibition or displacement.
